Reference: ChEMBL document CHEMBL5724914, “Linking interpersonal differences in gut microbiota composition and drug biotransformation activity” (2024)

Experiments:
[1] = (§1) The drug is tested on Z-001 corresponding to mouse gut metagenome with ENA study accession number: PRJEB37062 and ENA sample accession number: ERS12561801 for biotransformation under anaerobic condition. The drug concentrations were measured over 9 timepoints collected between 0 and 24 hours of incubation by liquid-chromatography-coupled mass spectrometry (LC–MS); conditions: 2 µM
[2] = human gut metagenome, 24 h, 2 µM
[3] = human gut metagenome, 24 h, 2 µM; remark: listed apart in the source
[4] = human gut metagenome, 24 h, 2 µM; remark: listed apart in the source
[5] = as §1, with “Z-003” for “Z-001”, “pig” for “mouse”, “ERS12561803” for “ERS12561801”; conditions: 2 µM
[6] = as §1, with “Z-025” for “Z-001”, “rabbit” for “mouse”, “ERS12561824” for “ERS12561801”; conditions: 2 µM
[7] = human gut metagenome, 24 h, 2 µM; remark: listed apart in the source
[8] = human gut metagenome, 24 h, 2 µM; remark: listed apart in the source
[9] = as §1, with “Z-007” for “Z-001”, “rat” for “mouse”, “ERS12561807” for “ERS12561801”; conditions: 2 µM
[10] = human gut metagenome, 24 h, 2 µM; remark: listed apart in the source
[11] = human gut metagenome, 24 h, 2 µM; remark: listed apart in the source
[12] = as §1, with “WLS-310” for “Z-001”, “human” for “mouse”, “ERS12561785” for “ERS12561801”; conditions: 2 µM
[13] = human gut metagenome, 24 h, 2 µM; remark: listed apart in the source
[14] = as §1, with “Z-018” for “Z-001”, “pig” for “mouse”, “ERS12561817” for “ERS12561801”; conditions: 2 µM
[15] = as §1, with “WLS-350” for “Z-001”, “human” for “mouse”, “ERS12561789” for “ERS12561801”; conditions: 2 µM
[16] = as §1, with “Z-021” for “Z-001”, “to” for “to mouse gut”, “ERS12561820” for “ERS12561801”; conditions: 2 µM
[17] = as §1, with “WLS-006” for “Z-001”, “human” for “mouse”, “ERS12561741” for “ERS12561801”; conditions: 2 µM
[18] = as §1, with “Z-024” for “Z-001”, “pig” for “mouse”, “ERS12561823” for “ERS12561801”; conditions: 2 µM
[19] = human gut metagenome, 24 h, 2 µM; remark: listed apart in the source
[20] = as §1, with “WLS-220” for “Z-001”, “human” for “mouse”, “ERS12561769” for “ERS12561801”; conditions: 2 µM
Note: call rule not given here.

| Structure (SMILES) | Bacterial Biotransformation [1] | Bacterial Biotransformation [2] | Bacterial Biotransformation [3] | Bacterial Biotransformation [4] | Bacterial Biotransformation [5] | Bacterial Biotransformation [6] | Bacterial Biotransformation [7] | Bacterial Biotransformation [8] | Bacterial Biotransformation [9] | Bacterial Biotransformation [10] | Bacterial Biotransformation [11] | Bacterial Biotransformation [12] | Bacterial Biotransformation [13] | Bacterial Biotransformation [14] | Bacterial Biotransformation [15] | Bacterial Biotransformation [16] | Bacterial Biotransformation [17] | Bacterial Biotransformation [18] | Bacterial Biotransformation [19] | Bacterial Biotransformation [20] |
| --- | --- | --- | --- | --- | --- | --- | --- | --- | --- | --- | --- | --- | --- | --- | --- | --- | --- | --- | --- | --- |
| CN[C@H]1CC[C@@H](c2ccc(Cl)c(Cl)c2)c2ccccc21 [SERTRALINE] | Compound NOT metabolized | Compound metabolized | Compound metabolized | Compound metabolized | Compound metabolized | Compound metabolized | Compound NOT metabolized | Compound NOT metabolized | Compound NOT metabolized | Compound metabolized | Compound NOT metabolized | Compound metabolized | Compound metabolized | Compound metabolized | Compound NOT metabolized | Compound metabolized | Compound metabolized | Compound metabolized | Compound NOT metabolized | Compound metabolized |
| O=C(O)CCC(=O)O.O=C(O[C@H]1CN2CCC1CC2)N1CCc2ccccc2[C@@H]1c1ccccc1 [SOLIFENACIN SUCCINATE] | Compound NOT metabolized | Compound metabolized | Compound NOT metabolized | Compound metabolized | Compound metabolized | Compound metabolized | Compound NOT metabolized | Compound NOT metabolized | Compound NOT metabolized | Compound NOT metabolized | Compound metabolized | Compound NOT metabolized | Compound NOT metabolized | Compound metabolized | Compound metabolized | Compound metabolized | Compound metabolized | Compound metabolized | Compound NOT metabolized | Compound NOT metabolized |
| O=C(CCCN1CCC2(CC1)C(=O)NCN2c1ccccc1)c1ccc(F)cc1 [SPIPERONE] | Compound NOT metabolized | Compound metabolized | Compound metabolized | Compound NOT metabolized | Compound NOT metabolized | Compound NOT metabolized | Compound NOT metabolized | Compound NOT metabolized | Compound NOT metabolized | Compound NOT metabolized | Compound metabolized | Compound metabolized | Compound NOT metabolized | Compound NOT metabolized | Compound NOT metabolized | Compound NOT metabolized | Compound metabolized | Compound NOT metabolized | Compound NOT metabolized | Compound metabolized |
| O=C1C(CC[S+]([O-])c2ccccc2)C(=O)N(c2ccccc2)N1c1ccccc1 (stereo not given) [SULFINPYRAZONE] | Compound NOT metabolized | Compound metabolized | Compound metabolized | Compound metabolized | Compound metabolized | Compound NOT metabolized | Compound metabolized | Compound metabolized | Compound NOT metabolized | Compound metabolized | Compound metabolized | Compound metabolized | Compound metabolized | Compound metabolized | Compound metabolized | Compound NOT metabolized | Compound metabolized | Compound metabolized | Compound metabolized | Compound metabolized |

Other lines, results leading:

| Bacterial Biotransformation [1] | Bacterial Biotransformation [2] | Bacterial Biotransformation [3] | Bacterial Biotransformation [4] | Bacterial Biotransformation [5] | Bacterial Biotransformation [6] | Bacterial Biotransformation [7] | Bacterial Biotransformation [8] | Bacterial Biotransformation [9] | Bacterial Biotransformation [10] | Bacterial Biotransformation [11] | Bacterial Biotransformation [12] | Bacterial Biotransformation [13] | Bacterial Biotransformation [14] | Bacterial Biotransformation [15] | Bacterial Biotransformation [16] | Bacterial Biotransformation [17] | Bacterial Biotransformation [18] | Bacterial Biotransformation [19] | Bacterial Biotransformation [20] | Structure (SMILES) |
| --- | --- | --- | --- | --- | --- | --- | --- | --- | --- | --- | --- | --- | --- | --- | --- | --- | --- | --- | --- | --- |
| Compound NOT metabolized | Compound metabolized | Compound metabolized | Compound NOT metabolized | Compound metabolized | Compound NOT metabolized | Compound NOT metabolized | Compound NOT metabolized | Compound NOT metabolized | Compound NOT metabolized | Compound metabolized | Compound NOT metabolized | Compound NOT metabolized | Compound NOT metabolized | Compound NOT metabolized | Compound metabolized | Compound metabolized | Compound NOT metabolized | Compound NOT metabolized | Compound NOT metabolized | CCOc1ccccc1OCCN[C@H](C)Cc1ccc(OC)c(S(N)(=O)=O)c1.Cl [TAMSULOSIN HYDROCHLORIDE] |
| Compound NOT metabolized | Compound metabolized | Compound NOT metabolized | Compound metabolized | Compound NOT metabolized | Compound NOT metabolized | Compound metabolized | Compound NOT metabolized | Compound NOT metabolized | Compound NOT metabolized | Compound metabolized | Compound metabolized | Compound NOT metabolized | Compound metabolized | Compound NOT metabolized | Compound NOT metabolized | Compound metabolized | Compound NOT metabolized | Compound NOT metabolized | Compound metabolized | COc1cc2nc(N3CCN(C(=O)C4CCCO4)CC3)nc(N)c2cc1OC (stereo not given) [TERAZOSIN] |
| Compound NOT metabolized | Compound metabolized | Compound metabolized | Compound NOT metabolized | Compound NOT metabolized | Compound NOT metabolized | Compound NOT metabolized | Compound NOT metabolized | Compound NOT metabolized | Compound NOT metabolized | Compound NOT metabolized | Compound NOT metabolized | Compound NOT metabolized | Compound NOT metabolized | Compound NOT metabolized | Compound NOT metabolized | Compound NOT metabolized | Compound NOT metabolized | Compound NOT metabolized | Compound NOT metabolized | c1ccc2[nH]c(-c3cscn3)nc2c1 [THIABENDAZOLE] |
